Source: article PMC8564858, “Flavonoid-based inhibitors of the Phi-class glutathione transferase from black-grass to combat multiple herbicide resistance” (Organic & Biomolecular Chemistry, 2021)

Columns and labels:
AmGSTF1 [1] = assay: CDNB assay: inhibition of AmGSTF1-catalysed glutathionylation of CDNB; type: biochemical, Alopecurus myosuroides; conditions: for CDNB Assay % Inhibition: three replicate measurements
AmGSTF1 [2] = assay: Thermal shift assay; type: binding, Alopecurus myosuroides; conditions: difference in melting temperature compared to no ligand

| Structure (SMILES) | CDNB Assay % Inhibition (AmGSTF1 [1]; 10 µM compound) [%] | CDNB Assay % Inhibition (AmGSTF1 [1]; 100 µM compound) [%] | Thermal Shift Assay ∆Tm (AmGSTF1 [2]; 1 µM) | Thermal Shift Assay ∆Tm (AmGSTF1 [2]; 10 µM) | Thermal Shift Assay ∆Tm (AmGSTF1 [2]; 100 µM) | CDNB Assay % Inhibition (AmGSTF1 [1]; 1 µM compound) [%] | Inhibitory activity toward AmGSTF1 in the CDNB assay (in words) (AmGSTF1 [1]) |
| --- | --- | --- | --- | --- | --- | --- | --- |
| COc1cc(OC)c2c(=O)cc(-c3ccccc3)oc2c1 [18a] | 20 | 70 | 0.23 | 0.33 | 0.3 |  |  |
| O=C1c2c(O)cc(O)cc2O[C@H](c2ccc(O)c(O)c2)[C@H]1O [compound 8, reference compound] |  | 18 |  |  |  |  |  |
| CCCCCC(Oc1cc(OC)cc2oc(-c3ccccc3)cc(=O)c12)C(=O)O (stereo not shown) [compound 42] | 69 |  | 0.17 | 0.43 | 2.33 | 4 |  |
| CCCCCOc1cc(O)c2c(=O)cc(-c3ccccc3)oc2c1 [compound 33] |  | 87 |  |  |  |  |  |
| COc1cc(OC)c2c(=O)cc(-c3cccc(-c4ccccc4)c3)oc2c1 [18d] | 12 | 87 | 0.13 | 0.13 | -0.1 |  |  |
| O=c1cc(-c2ccccc2)oc2cc(OCc3cccnc3)cc(O)c12 [compound 35] |  | 87 |  |  |  |  |  |
| COc1cc(OC)c2c(=O)cc(-c3ccc(F)cc3)oc2c1 [18b] | 23 | 78 | 0.17 | 0.33 | 0.27 |  |  |
| O=c1c(-c2ccc(O)cc2)coc2cc(O)cc(O)c12 [compound 5, reference compound] |  | 47 |  |  |  |  |  |
| CC(=O)Oc1cc(O)c2c(=O)cc(-c3ccccc3)oc2c1 [compound 28] |  | 10 |  |  |  |  |  |
| O=c1cc(-c2ccccc2)oc2cc(OCC3CC3)cc(O)c12 [compound 31] |  | 76 |  |  |  |  |  |
| Br.COC(=O)C(CCCCN)Oc1cc(OC)cc2oc(-c3ccccc3)cc(=O)c12 (stereo not shown) [compound 51] | 25 |  | 0.20 | 0.43 | 0.57 |  |  |
| COc1cc(OC)c2c(=O)cc(-c3nnn[nH]3)oc2c1 [compound 22] | 13 | 53 | -0.23 | -0.27 | -0.43 |  |  |
| COc1cccc(-c2cc(=O)c3c(OC)cc(OC)cc3o2)c1 [18f] | 15 | 79 | 0.33 | 0.2 | -0.17 |  |  |
| COc1cc(OC(C)C(=O)O)c2c(=O)cc(-c3ccccc3)oc2c1 (stereo not shown) [compound 41] | 14 |  | 0.20 | 0.20 | 1.10 |  |  |
| CCCCCCCCCC(Oc1cc(OC)cc2oc(-c3ccccc3)cc(=O)c12)C(=O)O (stereo not shown) [compound 44] | 97 |  | 0.40 | 0.70 | 0.90 | 58 |  |
| COc1cc(OC(C(=O)O)c2ccc(Cl)cc2)c2c(=O)cc(-c3ccccc3)oc2c1 (stereo not shown) [compound 49] |  |  |  |  |  | 27 |  |
| COc1ccc(CNc2cc(O)c3c(=O)cc(-c4ccccc4)oc3c2)cc1 [compound 36] |  | 45 |  |  |  |  |  |
| COc1cc(OC)c2c(=O)cc(-c3cnnc(C)c3)oc2c1 [18n] | 8 | 64 | -0.07 | -0.13 | -0.33 |  |  |
| O=c1cc(-c2ccccc2)oc2cc(OCC3CCCCO3)cc(O)c12 (stereo not shown) [compound 34] |  | 28 |  |  |  |  |  |
| O=c1cc(-c2ccccc2)oc2cc(O)cc(O)c12 [compound 2, 5,7-dihydroxyflavone, reference compound] | 47 | 96 | 0.1 | 0.1 | 0.2 |  |  |
| COc1cc(OC)c2c(=O)cc(N3CCN(C)CC3)oc2c1 [17a] |  | 16 | 0 | -0.03 | 0.20 |  |  |
| CCc1ccc(-c2cc(=O)c3c(OC)cc(OC)cc3o2)cc1 [18e] | 11 | 80 |  | 0.10 | 0 |  |  |
| COc1cc(OC)c2c(=O)cc(C(=O)Nc3ccc(C)cc3)oc2c1 [16c] | 33 | 64 | 0.20 | 0.10 | 0.33 |  |  |
| COc1cc(OC)c2c(=O)cc(-c3ccn(C)n3)oc2c1 [compound 26] | 19 | 64 | 0 | -0.03 | -0.17 |  |  |
| CCCCCC(=O)Oc1cc(O)c2c(=O)cc(-c3ccccc3)oc2c1 [compound 29] |  | 6 |  |  |  |  |  |

| Structure (SMILES) | CDNB Assay % Inhibition (AmGSTF1 [1]; 10 µM compound) [%] | CDNB Assay % Inhibition (AmGSTF1 [1]; 100 µM compound) [%] | Thermal Shift Assay ∆Tm (AmGSTF1 [2]; 1 µM) | Thermal Shift Assay ∆Tm (AmGSTF1 [2]; 10 µM) | Thermal Shift Assay ∆Tm (AmGSTF1 [2]; 100 µM) | CDNB Assay % Inhibition (AmGSTF1 [1]; 1 µM compound) [%] | Inhibitory activity toward AmGSTF1 in the CDNB assay (in words) (AmGSTF1 [1]) |
| --- | --- | --- | --- | --- | --- | --- | --- |
| CCCCCCCC(Oc1cc(OC)cc2oc(-c3ccccc3)cc(=O)c12)C(=O)O (stereo not shown) [compound 43] | 86 |  | 0.27 | 0.70 | 2.93 | 40 |  |
| COc1ccc(-c2coc3cc(O)ccc3c2=O)cc1 [compound 6, reference compound] |  | 41 |  |  |  |  |  |
| COc1cc(OC)c2c(=O)cc(-c3ccc(S(C)(=O)=O)cc3)oc2c1 [18l] | 14 | 35 | 0.13 | 0.20 | 0.30 |  |  |
| COc1cc(OC)c2c(=O)cc(-c3ccc4c(c3)OCO4)oc2c1 [18h] | 12 | 33 | 0.27 | 0.17 | 0.33 |  |  |
| O=c1cc(-c2ccccc2)oc2cc(OCC3CCCC3)cc(O)c12 [compound 32] |  | 80 |  |  |  |  |  |
| COC(=O)c1ccc(-c2cc(=O)c3c(OC)cc(OC)cc3o2)cc1 [18i] | 20 | 58 | 0.27 | 0.30 | 0.27 |  |  |
| COc1cc(OC)c2c(=O)cc(-c3ccnn3C)oc2c1 [compound 25] | 9 | 58 | 0 | -0.03 | -0.10 |  |  |
| O=c1cc(-c2ccccc2)oc2cc(OCc3ccccc3)cc(O)c12 [compound 30] |  | 53 |  |  |  |  |  |
| CCCCCCCCCCC(Oc1cc(OC)cc2oc(-c3ccccc3)cc(=O)c12)C(=O)O (stereo not shown) [compound 45] | 99 | 100 | 0.30 | 0.23 | 1.17 | 71 |  |
| COc1cc(OC)c2c(=O)cc(-c3ccc(OC)c(OC)c3)oc2c1 [18g] | 11 | 100 | 0.30 | -0.03 | 0.17 |  |  |
| COc1cc(OC)c2c(=O)cc(NCCCO)oc2c1 [17d] |  | 12 | 0.23 | 0.17 | 0.07 |  |  |
| COc1cc(NC(=O)c2cc(=O)c3c(OC)cc(OC)cc3o2)cc(OC)c1 [16b] | 19 | 56 | 0.20 | 0.50 | 0.13 |  |  |
| COc1cc(OC)c2c(=O)cc(-c3cccc(S(C)(=O)=O)c3)oc2c1 [18k] | 11 | 60 | 0.20 | 0.10 | 0.30 |  |  |
| COc1cc(OC)c2c(=O)cc(-c3ccn[nH]3)oc2c1 [compound 24] | 6 | 59 | -0.30 | -0.07 | -0.03 |  |  |
| O=c1cc(-c2ccccc2)oc2cc(N3CCCCC3)cc(O)c12 [compound 38] |  | 88 |  |  |  |  |  |
| O=c1cc(-c2ccccc2)oc2cc(N3CCCC3)cc(O)c12 [compound 37] |  | 46 |  |  |  |  |  |
| O=C(Oc1cc(O)c2c(=O)cc(-c3ccccc3)oc2c1)c1ccccc1 [compound 27] |  | 4 |  |  |  |  |  |
| CCCCC(=O)NCCCCC(Oc1cc(OC)cc2oc(-c3ccccc3)cc(=O)c12)C(=O)O (stereo not shown) [compound 52] | 39 |  | 0.13 | 0.30 | 1.10 | 6 |  |
| COc1cc(OC(C(=O)O)c2ccccc2)c2c(=O)cc(-c3ccccc3)oc2c1 (stereo not shown) [compound 48] |  |  |  |  |  | 16 |  |
| COc1cc(OCC(=O)O)c2c(=O)cc(-c3ccccc3)oc2c1 [compound 40] |  |  |  |  |  | 23 |  |
| COc1cc(OC(C(=O)O)C(C)C)c2c(=O)cc(-c3ccccc3)oc2c1 (stereo not shown) [compound 47] |  |  |  |  |  | 7 |  |
| Oc1cc(O)c2c(c1)OC(c1ccc(O)c(O)c1)C(O)C2 (stereo not shown) [compound 10, catechin, reference compound] |  | 0 |  |  |  |  | no inhibition |
| O=c1cc(-c2ccccc2)oc2cc(N3CCOCC3)cc(O)c12 [compound 39] | 56 | 100 |  |  |  |  |  |
| COc1cc(OC(Cc2ccccc2)C(=O)O)c2c(=O)cc(-c3ccccc3)oc2c1 (stereo not shown) [compound 50] |  |  |  |  |  | 8 |  |
| Cc1cc(=O)c2c(O)cc(O)cc2o1 [compound 12] |  | 63 |  |  |  |  | reduced inhibitory activity |
